In this assay the test system is BT-549. As to the kind of experiment: DTP human tumour cell line panel, 48 h.

These results are taken from ChEMBL document CHEMBL1201862, “PubChem BioAssay data set” (2004).

The term GI50 denotes the concentration at which growth is held to half of that of the control.

Structures are written as SMILES.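 Each compound was tested at five concentrations against cells in 96-well plates for 48 hours. GI50 = concentration required for 50% inhibition of growth.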 Activity calls are given as the source filed them. Rule as the data show it: active = GI50 up to about 1.1 µM and inactive = higher.

Consider `CCCCCC1=C/C(=C\c2[nH]c(-c3ccc[nH]3)cc2OC)N=C1C`, for which the 50% growth inhibitory concentration (GI50) is 0.0324 µM (active).
For the compound `CCOP(=O)(OCC)/C(C#N)=C/c1ccc(-c2cc(C(F)(F)F)cc(C(F)(F)F)c2)o1`, the GI50 was 25.7 µM (inactive).
Next, `N[C@H]1CCCC[C@@H]1N1C(=O)c2ccccc2C1(O)c1ccc(Cl)cc1` (stereo partly specified): 15 µM (inactive).
Next, `O/N=N/c1ccc([SH2]c2ccc3ccccc3c2)cn1`: 23 µM (inactive); `N#C[BH2-][n+]1ccc(C(=O)NNCc2cccc(C(F)(F)F)c2)cc1`: 14.3 µM (inactive).
Next, `C[C@H]1C(=O)C2=C[C@H]1CCC(=O)[C@]1(C)CCCC(C)(C)[C@H]1C[C@H]2O`: 28.2 µM (inactive).
As for `COc1ccc(-c2cc(-c3ccc(Nc4ccnc5cc(C(F)(F)F)ccc45)cc3)[nH]c(=O)c2C#N)cc1`, the GI50 is > 52 µM (inactive).
As to `Cc1cc2c(cc1O)CC[C@@H]1[C@@H]2CC[C@]2(C)[C@@H](O)CC[C@@H]12`, the GI50 is 6.27 µM (inactive).
Take `CCOC(=O)CSC1NC(C(=O)OC)CC1OC` (stereo unspecified): the GI50 is > 100 µM (inactive).
As for `N#Cc1c(Cl)nc2ccccc2c1N=[N+]=[N-]`, the GI50 is 1.8 µM (inactive).
As for `O=c1[nH]c(-c2ccccc2)nc2c1sc1nc3ccccc3n12`, the GI50 is > 61 µM (inactive).
On to `COc1cccc2c3cccc(OC)c3c3[nH]cnc3c12`, for which the GI50 is 16.1 µM (inactive).
Regarding `CN(C)/N=N/c1nc2c(c(=O)n(C)c(=O)n2C)n1CC(O)CO` (stereo unspecified), the GI50 is > 100 µM (inactive).
Next, `O=C(Cn1ccnc1[N+](=O)[O-])NCCO` [ETANIDAZOLE]: > 100 µM (inactive); `Nc1ccn(C2CCC(CO)O2)c(=S)n1` (stereo unspecified): > 100 µM (inactive); `CC(C)(C)OC(=O)NC1CCCC1C(=O)C1=CCCC1` (stereo unspecified): > 100 µM (inactive).
Next, `Cc1cc(C)nc(SC(C)C(=O)N/N=C/c2ccc(OCc3ccccc3)cc2)n1` (stereo unspecified): 26.5 µM (inactive); `COc1ccc(OC)c2c1ccc1c(C)c3ccccc3c(C)c12`: > 100 µM (inactive).
Next, `C=CCC1(OCc2ccccc2)C(=O)C(=O)OC1C1COC(C)(C)O1` (stereo unspecified): > 100 µM (inactive).
Regarding `O=[N+]([O-])c1ccc2nc(=S)[nH]n2c1`, the GI50 is > 100 µM (inactive).
Next, `CC1=NN(c2ccccc2)C(=O)C1/N=N/c1ccc(S(N)(=O)=O)cc1` (stereo unspecified): > 100 µM (inactive); `COc1cc2c(cc1OCCCCCOc1cc3c(cc1OC)C(=O)N1CCC[C@H]1CN3)N=C[C@@H]1CCCN1C2=O`: 2.66 µM (inactive).
Next, `COc1cc(OC)c(C/C=C/c2ccccc2)cc1O`: 16.1 µM (inactive); `COc1ccc(-n2nnc3c(C#N)c(C)c(-c4ccccc4)n3c2=O)cc1`: 5.92 µM (inactive).
For `O=C1NNC(=O)c2ccccc2SSc2ccccc2C(=O)NNC(=O)c2ccccc2SSc2ccccc21`, the GI50 is 11.5 µM (inactive).
Next, `COc1ccc(NC(=S)N/N=C2\C(=O)Nc3ccccc32)cc1`: 4.74 µM (inactive); `O=C(O)c1nnsc1-c1csnn1`: > 100 µM (inactive).
Next, `Clc1ccc(COC(Cn2ccnc2)c2ccc(Cl)cc2Cl)c(Cl)c1` (stereo unspecified) [MICONAZOLE]: 15 µM (inactive); `O=C(NCc1cccnc1)NCc1cccnc1`: > 100 µM (inactive).
Next, `CC1(C)[C@H]2CC[C@@]13C(=O)N1C(=O)O[C@@H]([C@H]1Cl)C(Cl)(COCc1ccccc1)C(=O)OCCO[C@H]3C2` (stereo partly specified): 61.2 µM (inactive); `Nc1c(-c2nc3ccccc3s2)c2ccc([N+](=O)[O-])cc2c(=O)n1-c1cccc(C(=O)O)c1`: 20.1 µM (inactive); `Cc1ccc(S(=O)(=O)NNC(=O)Nc2ccc([N+](=O)[O-])cc2)cc1`: 78.9 µM (inactive).
In the case of `CNc1ncc(-c2nnnn2-c2ccccc2)c(CN(C)C)n1`, the GI50 is > 100 µM (inactive).
On to `CCOC(=O)c1sc2ncnc(N)c2c1C`, for which the GI50 was > 100 µM (inactive).
Next, `CCOC(=O)/C(=C\NC[C@@H](C)O)c1nc2ccccc2[nH]1`: > 100 µM (inactive); `S=C(Nc1ccccc1)N(Cc1ccccc1)c1ccccc1`: 0.34 µM (active).
